Results reported in patent US4386198A, “2-Hydroxyaclacinomycin A and 2-hydroxyaklavinone and process for preparing same” (priority 1979, dated 1983).
Converted amounts (≈) assume the structure as drawn.

Key:
[1] = system: L 1210 leukemia; test: in vivo antitumor activity: L 1210 (prolongation of lifespan of CDF1 mice inoculated intraperitoneally with L 1210 cells); parameters: species or system mice (murine; CDF1); details: for T/C: once daily for 10 days, from 24 h after inoculation
Procedure: Antitumor effect against experimental animal tumor was examined as follows. CDF1 mice were inoculated with 1×10^5 cells of L 1210 cells intraperitoneally, and 2-hydroxyaclacinomycin A was administered intraperitoneally once daily for 10 days consecutively, 24 hours after inoculation. Prolongation of lifespan over controls (injected with only physiological saline instead of 2-hydroxyaclacinomycin A) is shown in Table 1. LD50 value in dd mice is also shown in Table 1 comparing with that of aclacinomycin A.

[2] = system: L 1210 cells; test: in vitro activity: L 1210 growth inhibition; format: cell-based, murine; details: for IC50: Mus musculus, L1210, L 1210, RPMI 1640 with 20% calf serum, 37° C.
Procedure: (§1) In an example, L 1210 cells were inoculated in RPMI (Rosewell Park Memorial Institute) 1640 medium containing 20% calf serum at the cell density of 5×10^4 cells/ml, and the compound in the present invention was simultaneously added to the medium at the concentration of 0.1 and 0.5 μg/ml and incubated at 37° C. in a CO2 incubator. 50% growth inhibition concentration of the compound over controls was determined. L 1210 cells as described above were also inoculated at 5×10^5 cells in RPMI 1640 medium containing 10% calf serum and incubated at 37° C. for 1 to 2 hours in a CO2 incubator. The cells were cultured for 15 min. at 37° C. after the compound of the present invention was added at various concentrations, and then ^14 C-uridine (0.05 μCi/ml) or ^14 C-thymidine (0.05 μCi/ml) was added and incubated for 60 additional min. at 37° C. After stopping the pulse-labeling by addition of 10% trichloroacetic acid (TCA) solution to the reaction mixture, acid-insoluble materials were precipitated, washed three times with 5 to 10% TCA, and dissolved in a small amount of formic acid. Then, radioactivity was determined, and inhibitory effects on the RNA and DNA biosynthesis were indicated by the 50% inhibition concentration (IC50) of the incorporation of radioactivity over controls.

[3] = system: DNA biosynthesis in L 1210 cells; test: in vitro activity: DNA synthesis in L 1210 cells (14C-thymidine incorporation); format: cell-based, murine; details: Mus musculus, L1210; L 1210, 14C-thymidine, 60 min pulse after 15 min with compound, 37° C.
Procedure: as §1

[4] = system: RNA biosynthesis in L 1210 cells; test: in vitro activity: RNA synthesis in L 1210 cells (14C-uridine incorporation); format: cell-based, murine; details: for IC50: Mus musculus, L1210, L 1210, 14C-uridine, 60 min pulse after 15 min with compound, 37° C.
Procedure: as §1

[5] = Acute toxicity (LD50) in dd mice; format: in vivo; details: mouse, in vivo, ip; dd mice
[6] = system: dd mice; test: Acute toxicity (LD50) in dd mice; format: in vivo; details: compared with daunomycin and adriamycin
[7] = system: L 1210 cells; test: growth and nucleic acid biosynthesis of murine leukemia L 1210 cells in culture; format: cell-based
Procedure: as §1

[8] = cardiotoxicity compared with aclacinomycin A; details: comparing with aclacinomycin A

| SMILES | T/C ([1]; 0.5 mg/kg/day i.p.) [%] | T/C ([1]; 1 mg/kg/day i.p.) [%] | T/C ([1]; 2 mg/kg/day i.p.) [%] | T/C ([1]; 4 mg/kg/day i.p.) [%] | T/C ([1]; 6 mg/kg/day i.p.) [%] | toxicity in words at 8 mg/kg/day (in T/C column) ([1]; 8 mg/kg/day i.p., L 1210-bearing CDF1 mice) | IC50 [2] [µg/mL] | IC50 [3] [µg/mL] | IC50 [4] [µg/mL] | LD50 [5] [mg/kg] | T/C ([1]; 8 mg/kg/day i.p.) [%] | T/C ([1]; 12 mg/kg/day i.p.) [%] | prolongation of lifespan, in words ([1]; L 1210-bearing mice) | antitumor activity, in words ([1]; comparing with aclacinomycin A) | effective dose range relative to aclacinomycin A ([1]; relative to aclacinomycin A) | suppression of growth, in words ([2]; murine leukemic cells, low concentration) | inhibition of RNA synthesis, in words ([4]; mode of action compared to aclacinomycin and rhodomycin-group) | acute toxicity, in words [6] | inhibition of growth and nucleic acid biosynthesis, in words [7] | cardiotoxicity, in words [8] |
| --- | --- | --- | --- | --- | --- | --- | --- | --- | --- | --- | --- | --- | --- | --- | --- | --- | --- | --- | --- | --- |
| CC[C@@]1(O)C[C@H](O[C@H]2C[C@H](N(C)C)[C@H](O[C@H]3C[C@H](O)[C@H](O[C@H]4CCC(=O)[C@H](C)O4)[C@H](C)O3)[C@H](C)O2)c2c(cc3c(c2O)C(=O)c2c(O)cccc2C3=O)[C@H]1C(=O)OC [Aclacinomycin A] | 130 | 146 | 165 | 205 | 105 | Toxic | 0.12 (≈ 0.148 µM) | 1.1 (≈ 1.35 µM) | 0.1 (≈ 0.123 µM) | 22.6 |  |  |  |  |  |  |  |  |  |  |
| CCC1(O)CC(OC2CC(N(C)C)C(OC3CC(O)C(OC4CCC(=O)C(C)O4)C(C)O3)C(C)O2)c2c(cc3c(c2O)C(=O)c2c(O)cc(O)cc2C3=O)C1C(=O)OC (centres unmarked) [2-Hydroxyaclacinomycin A, 2-hydroxyaclacinomycin A] | 145 | 153 | 176 | 201 | 218 |  | 0.1 (≈ 0.121 µM) | 0.95 (≈ 1.15 µM) | 0.1 (≈ 0.121 µM) | 50 | 194 | 127 | marked prolongation of lifespan | more potent antitumor activity | twice | suppressed the growth of murine leukemic cells at low concentration | specifically inhibited RNA synthesis | much more less than those of known anthracycline antibiotics such as daunomycin and adriamycin | inhibited markedly the growth and nucleic acid biosynthesis | less cardiotoxicity |
